According to the Kinase Knowledgebase extract (Sharma et al. 2016):

What was measured:
CDK2 (human) = CDK2 (human) (UniProt P24941); assay: Cell-Based Assay
CDK2 = CDK2 (UniProt P24941); assay: Enzyme Assay

Row | SMILES | IC50 (CDK2 (human); mda-mb-435) [µM] | IC50 (CDK2 (human); hct 116) [µM] | IC50 (CDK2 (human); sw480) [µM] | IC50 (CDK2) [µM]
1 | O=[N+]([O-])c1ccc2c(c1)C(c1ccccc1Cl)=Nc1c(n[nH]c1C(F)(F)F)N2 | 1.1 to 9.99 |  |  | 
2 | NC(=O)c1ccc2c(c1)C(c1ccccc1F)=Nc1c[nH]nc1N2 |  | 1.1 to 9.99 | 1.1 to 9.99 | 
3 | N#Cc1[nH]nc2c1N=C(c1ccccc1Cl)c1cc([N+](=O)[O-])ccc1N2 | 10 to 30 |  |  | 
4 | CC(C)c1[nH]nc2c1N=C(c1ccccc1Cl)c1cc(N)ccc1N2 | 1.1 to 9.99 |  |  | 
5 | Cc1cccc(-c2[nH]nc3c2N=C(c2ccccc2Cl)c2cc([N+](=O)[O-])ccc2N3)c1 |  |  |  | 1 to 9.99
6 | Cc1[nH]nc2c1N=C(c1ccccc1F)c1ccccc1N2 | 1.1 to 9.99 |  | 0.01 to 1 | 
7 | COc1ccc2c(c1)C(c1ccccc1Cl)=Nc1c(n[nH]c1C)N2 | 1.1 to 9.99 |  | 1.1 to 9.99 | 
8 | Cc1[nH]nc2c1N=C(c1ccccc1Cl)c1cc(Cl)ccc1N2 | 1.1 to 9.99 |  | 1.1 to 9.99 | 
9 | Cc1[nH]nc2c1N=C(c1ccccc1F)c1cc(C(=O)NCCO)ccc1N2 | 1.1 to 9.99 |  | 0.01 to 1 | 
10 | Cc1[nH]nc2c1N=C(c1ccccc1)c1cc(Cl)ccc1N2 | 1.1 to 9.99 |  | 1.1 to 9.99 | 
11 | Cc1[nH]nc2c1N=C(c1ccccc1Cl)c1cc(NS(=O)(=O)N(C)C)ccc1N2 | 0.01 to 1 |  | 1.1 to 9.99 | 
12 | O=[N+]([O-])c1ccc2c(c1)C(c1ccccc1)=Nc1c(n[nH]c1-c1ncc[nH]1)N2 |  |  |  | 1 to 9.99
13 | O=[N+]([O-])c1ccc2c(c1)C(c1ccccc1Cl)=Nc1c(n[nH]c1-c1ccccc1[N+](=O)[O-])N2 |  |  |  | 10 to 30
14 | Fc1ccccc1C1=Nc2c[nH]nc2Nc2ccc(I)cc21 |  |  |  | 1 to 9.99
15 | CN(C)c1ccc(-c2[nH]nc3c2N=C(c2ccccc2Cl)c2cc([N+](=O)[O-])ccc2N3)cc1 |  |  |  | 1 to 9.99
16 | Cn1cccc1-c1[nH]nc2c1N=C(c1ccccc1Cl)c1cc([N+](=O)[O-])ccc1N2 |  |  |  | 1 to 9.99
17 | N#Cc1ccc2c(c1)C(c1ccccc1F)=Nc1c[nH]nc1N2 | 1.1 to 9.99 | 1.1 to 9.99 | 1.1 to 9.99 | 
18 | O=[N+]([O-])c1ccc2c(c1)C(c1ccccc1Cl)=Nc1c(n[nH]c1-c1ccncc1)N2 |  | 10 to 30 | 10 to 30 | 
19 | O=[N+]([O-])c1ccc2c(c1)C(c1ccccc1)=Nc1c(n[nH]c1C1CC1)N2 |  | 10 to 30 |  | 
20 | Cc1[nH]nc2c1N=C(c1ccccc1F)c1cc([N+](=O)[O-])ccc1N2 | 0.01 to 1 |  | 0.01 to 1 | 
21 | Cc1[nH]nc2c1N=C(c1ccccc1F)c1cc(C#N)ccc1N2 | 0.01 to 1 | 1.1 to 9.99 | 0.01 to 1 | 
22 | O=[N+]([O-])c1ccc2c(c1)C(c1ccccc1Cl)=Nc1c(n[nH]c1-c1cccc3ccccc13)N2 |  | 10 to 30 | 10 to 30 | 

Row | SMILES | IC50 (CDK2 (human); mda-mb-435) [µM] | IC50 (CDK2 (human); hct 116) [µM] | IC50 (CDK2 (human); sw480) [µM] | IC50 (CDK2) [µM]
23 | O=Cc1[nH]nc2c1N=C(c1ccccc1Cl)c1cc([N+](=O)[O-])ccc1N2 | 0.01 to 1 |  |  | 
24 | O=[N+]([O-])c1ccc2c(c1)C(c1ccccc1Cl)=Nc1c[nH]nc1N2 | 10 to 30 | 10 to 30 | 1.1 to 9.99 | 
25 | CCCc1[nH]nc2c1N=C(c1ccccc1Cl)c1cc([N+](=O)[O-])ccc1N2 | 10 to 30 | 10 to 30 | 10 to 30 | 
26 | CN(C)Cc1[nH]nc2c1N=C(c1ccccc1Cl)c1cc([N+](=O)[O-])ccc1N2 | 10 to 30 |  |  | 
27 | N#Cc1ccc2c(c1)C(c1ccccc1F)=Nc1c(n[nH]c1CO)N2 | 0.01 to 1 |  | 0.01 to 1 | 
28 | Cc1[nH]nc2c1N=C(c1ccccc1Cl)c1cc([N+](=O)[O-])ccc1N2 | 0.01 to 1 | 0.01 to 1 | 0.01 to 1 | 
29 | O=[N+]([O-])c1ccc2c(c1)C(c1ccccc1Cl)=Nc1c(n[nH]c1-c1c[nH]cn1)N2 | 1.1 to 9.99 |  |  | 
30 | O=[N+]([O-])c1ccc2c(c1)C(c1ccccc1Cl)=Nc1c(n[nH]c1CO)N2 | 0.01 to 1 |  | 0.01 to 1 | 
31 | O=C(c1ccc2c(c1)C(c1ccccc1F)=Nc1c[nH]nc1N2)N1CCOCC1 |  | 10 to 30 | 0.01 to 1 | 
32 | Cc1[nH]nc2c1N=C(c1ccccc1Cl)c1cc(NS(=O)(=O)NCCl)ccc1N2 | 1.1 to 9.99 |  | 1.1 to 9.99 | 
33 | O=C(NCCO)c1ccc2c(c1)C(c1ccccc1F)=Nc1c[nH]nc1N2 |  | 10 to 30 |  | 
34 | Cc1[nH]nc2c1N=C(c1ccccc1Cl)c1cc(NS(C)(=O)=O)ccc1N2 | 0.01 to 1 |  | 0.01 to 1 | 
35 | C=CC(=O)Nc1ccc2c(c1)C(c1ccccc1Cl)=Nc1c(n[nH]c1C)N2 | 0.01 to 1 |  | 0.01 to 1 | 
36 | Clc1ccc2c(c1)C(c1ccccc1)=Nc1c[nH]nc1N2 |  |  |  | 1 to 9.99
37 | Cc1[nH]nc2c1N=C(c1ccccc1Cl)c1cc(NS(=O)(=O)N3CCOCC3)ccc1N2 | 1.1 to 9.99 |  | 1.1 to 9.99 | 
38 | Fc1ccccc1C1=Nc2c[nH]nc2Nc2ccc(Cl)cc21 |  |  |  | 1 to 9.99
39 | O=[N+]([O-])c1ccc2c(c1)C(c1ccccc1Cl)=Nc1c(n[nH]c1-c1cccc3c1OCO3)N2 |  | 10 to 30 |  | 
40 | COc1cc(O)ccc1-c1[nH]nc2c1N=C(c1ccccc1Cl)c1cc([N+](=O)[O-])ccc1N2 |  | 10 to 30 |  | 
41 | CC(=O)Nc1ccc2c(c1)C(c1ccccc1Cl)=Nc1c(n[nH]c1C)N2 | 0.01 to 1 |  | 0.01 to 1 | 
42 | Cc1[nH]nc2c1N=C(c1ccccc1C(F)(F)F)c1cc([N+](=O)[O-])ccc1N2 |  |  | 0.01 to 1 | 
43 | O=[N+]([O-])c1ccc2c(c1)C(c1ccccc1F)=Nc1c[nH]nc1N2 | 10 to 30 | 10 to 30 | 1.1 to 9.99 | 
44 | NC(=O)c1[nH]nc2c1N=C(c1ccccc1Cl)c1cc([N+](=O)[O-])ccc1N2 | 10 to 30 |  |  | 

Row | SMILES | IC50 (CDK2 (human); mda-mb-435) [µM] | IC50 (CDK2 (human); hct 116) [µM] | IC50 (CDK2 (human); sw480) [µM] | IC50 (CDK2) [µM]
45 | CC(C)c1[nH]nc2c1N=C(c1ccccc1Cl)c1cc([N+](=O)[O-])ccc1N2 | 0.01 to 1 | 1.1 to 9.99 | 0.01 to 1 | 
46 | O=C(O)c1ccc2c(c1)C(c1ccccc1)=Nc1c[nH]nc1N2 |  |  |  | 1 to 9.99
47 | O=[N+]([O-])c1ccc2c(c1)C(c1ccccc1Cl)=Nc1c(n[nH]c1-c1ccccc1)N2 |  | 10 to 30 | 10 to 30 | 
48 | O=[N+]([O-])c1ccc2c(c1)C(c1ccccc1Cl)=Nc1c(n[nH]c1-c1ccco1)N2 |  | 10 to 30 | 10 to 30 | 
49 | O=C(O)c1ccc2c(c1)C(c1ccccc1F)=Nc1c[nH]nc1N2 |  |  |  | 1 to 9.99
50 | Cc1ccc(-c2[nH]nc3c2N=C(c2ccccc2Cl)c2cc([N+](=O)[O-])ccc2N3)cc1 |  |  |  | 1 to 9.99
51 | Cc1[nH]nc2c1N=C(c1ccccc1)c1cc(Br)ccc1N2 |  |  | 10 to 30 | 
52 | Cc1[nH]nc2c1N=C(c1ccccc1Cl)c1ccccc1N2 | 1.1 to 9.99 |  | 1.1 to 9.99 | 
53 | COCc1[nH]nc2c1N=C(c1ccccc1Cl)c1cc([N+](=O)[O-])ccc1N2 | 1.1 to 9.99 |  |  | 
54 | CC(C)Cc1[nH]nc2c1N=C(c1ccccc1Cl)c1cc([N+](=O)[O-])ccc1N2 |  |  |  | 1 to 9.99
55 | O=[N+]([O-])c1ccc2c(c1)C(c1ccccc1)=Nc1c(n[nH]c1-c1ccc3c(c1)OCO3)N2 |  |  |  | 10 to 30
56 | O=[N+]([O-])c1ccc2c(c1)C(c1ccccc1Cl)=Nc1c(n[nH]c1-c1ccc3ccccc3c1)N2 |  |  |  | 1 to 9.99
57 | O=[N+]([O-])c1ccc2c(c1)C(c1ccccc1Cl)=Nc1c(n[nH]c1-c1ccc(OC(F)(F)F)cc1)N2 |  | 10 to 30 |  | 
58 | O=[N+]([O-])c1ccc2c(c1)C(c1ccccc1Cl)=Nc1c(n[nH]c1-c1cccnc1)N2 |  | 10 to 30 | 10 to 30 | 
59 | C=Cc1[nH]nc2c1N=C(c1ccccc1Cl)c1cc([N+](=O)[O-])ccc1N2 | 0.01 to 1 |  |  | 
60 | N#Cc1ccccc1-c1[nH]nc2c1N=C(c1ccccc1Cl)c1cc([N+](=O)[O-])ccc1N2 |  |  |  | 1 to 9.99
61 | CSc1ccc(-c2[nH]nc3c2N=C(c2ccccc2Cl)c2cc([N+](=O)[O-])ccc2N3)cc1 |  | 10 to 30 |  | 
62 | COc1ccccc1-c1[nH]nc2c1N=C(c1ccccc1Cl)c1cc([N+](=O)[O-])ccc1N2 |  |  |  | 10 to 30
63 | O=[N+]([O-])c1ccc2c(c1)C(c1ccccc1Cl)=Nc1c(n[nH]c1C1CC1)N2 | 0.01 to 1 | 1.1 to 9.99 | 1.1 to 9.99 | 
64 | O=[N+]([O-])c1ccc2c(c1)C(c1ccccc1)=Nc1c(n[nH]c1-c1ccc3c(c1)OCCO3)N2 |  |  |  | 10 to 30
65 | Cc1[nH]nc2c1N=C(c1ccccc1Cl)c1cc(N)ccc1N2 | 0.01 to 1 |  | 0.01 to 1 | 
66 | Cc1[nH]nc2c1N=C(c1ccccc1F)c1cc(C(=O)NCCN3CCOCC3)ccc1N2 | 1.1 to 9.99 |  | 0.01 to 1 | 

Row | SMILES | IC50 (CDK2 (human); mda-mb-435) [µM] | IC50 (CDK2 (human); hct 116) [µM] | IC50 (CDK2 (human); sw480) [µM] | IC50 (CDK2) [µM]
67 | COC(=O)c1ccc2c(c1)C(c1ccccc1)=Nc1c[nH]nc1N2 |  |  |  | 1 to 9.99
68 | O=C(c1ccc2c(c1)C(c1ccccc1F)=Nc1c[nH]nc1N2)N(CCO)CCO |  |  |  | 1 to 9.99
69 | O=[N+]([O-])c1ccc2c(c1)C(c1ccccc1Cl)=Nc1c(n[nH]c1-c1cccc(O)c1)N2 |  |  |  | 1 to 9.99
70 | O=[N+]([O-])c1ccc2c(c1)C(c1ccccc1Cl)=Nc1c(n[nH]c1-c1cncc3ccccc13)N2 |  | 10 to 30 |  | 
71 | Cc1[nH]nc2c1N=C(c1ccccc1)c1cc(F)ccc1N2 | 0.01 to 1 |  | 1.1 to 9.99 | 
72 | O=[N+]([O-])c1ccc2c(c1)C(c1ccccc1)=Nc1c[nH]nc1N2 |  | 10 to 30 |  | 
73 | Cc1[nH]nc2c1N=C(c1ccccc1F)c1cc(Cl)ccc1N2 |  |  | 1.1 to 9.99 | 
74 | Cc1[nH]nc2c1N=C(c1ccccc1F)c1cc(C(=O)N3CCOCC3)ccc1N2 | 1.1 to 9.99 |  | 0.01 to 1 | 
75 | CCOC(=O)c1ccc2c(c1)C(c1ccccc1F)=Nc1c(n[nH]c1C)N2 | 1.1 to 9.99 | 1.1 to 9.99 | 1.1 to 9.99 | 
76 | CCc1[nH]nc2c1N=C(c1ccccc1Cl)c1cc([N+](=O)[O-])ccc1N2 | 0.01 to 1 | 0.01 to 1 | 0.01 to 1 | 
77 | NNC(=O)c1[nH]nc2c1N=C(c1ccccc1Cl)c1cc([N+](=O)[O-])ccc1N2 |  | 1.1 to 9.99 | 10 to 30 | 
78 | Cc1[nH]nc2c1N=C(c1ccccc1F)c1cc(F)ccc1N2 |  |  | 0.01 to 1 | 
79 | Cc1[nH]nc2c1N=C(c1ccccc1F)c1cc(I)ccc1N2 |  |  | 1.1 to 9.99 | 
80 | Cc1cn[nH]c1-c1[nH]nc2c1N=C(c1ccccc1Cl)c1cc([N+](=O)[O-])ccc1N2 | 1.1 to 9.99 | 1.1 to 9.99 | 0.01 to 1 | 
81 | Clc1ccccc1C1=Nc2c[nH]nc2Nc2ccccc21 |  | 10 to 30 | 10 to 30 | 
82 | O=[N+]([O-])c1ccc2c(c1)C(c1ccccc1Cl)=Nc1c(n[nH]c1-c1ccc[nH]1)N2 |  | 1.1 to 9.99 | 1.1 to 9.99 | 
83 | Cc1[nH]nc2c1N=C(c1ccccc1F)c1cc(C(N)=O)ccc1N2 |  |  | 0.01 to 1 | 
84 | O=[N+]([O-])c1ccc2c(c1)C(c1ccccc1Cl)=Nc1c(n[nH]c1-c1cc[nH]n1)N2 | 1.1 to 9.99 |  |  | 
85 | Cc1[nH]nc2c1N=C(c1ccccc1)c1cc([N+](=O)[O-])ccc1N2 | 0.01 to 1 |  | 0.01 to 1 | 
86 | O=[N+]([O-])c1ccc2c(c1)C(c1ccccc1Cl)=Nc1c(n[nH]c1-c1nccs1)N2 | 10 to 30 |  |  | 
